Reference: patent US12600714B2, “Substituted pyrazinecarboxamide compounds for treating diseases related to EGFR mutation” (WIGEN BIOMEDICINE TECHNOLOGY (SHANGHAI) CO., LTD., priority 2020, dated 2026)

Key:
EGFR (L858R/T790M/C797S) = EGFR (L858R/T790M/C797S) (Homo sapiens, UniProt P00533, C797S/L858R/T790M); assay: HTRF inhibitory activity assay against EGFR (L858R/T790M/C797S) enzyme; assay type: biochemical; details: read-out: EGFR (L858R/T790M/C797S) inhibition (%) (0.3 nM compound)
Protocol: (§1) Inhibitory Activity Assay of the Compounds Disclosed Herein Against EGFR (del19/T790M/C797S), EGFR (L858R/T790M/C797S) or EGFR (WT) Enzymes
(§2) The inhibitory effects of the compounds against EGFR (del19/T790M/C797S), EGFR (L858R/T790M/C797S) or EGFR (WT) enzyme activity was determined by using HTRF. The procedures are as follows:
(§3) The WT or mutant EGFR proteins were incubated with a serially diluted compounds at 28° C. for 10 min followed by addition of biotin-labeled general tyrosine kinase (TK) substrate and ATP. The mixture was incubated at room temperature for 40 min for reaction. After the termination of the reaction, an Eu3+-Cryptate-labeled antibody against TK and streptavidin-XL665 were added and the mixture was incubated at room temperature for 60 min. The luminescences at 615 nm and 665 nm were detected and the ratio of 665/615 was calculated to quantify the level of TK substrate phosphorylation. Inhibition % and IC50 of the compounds were calculated relative to the control group.

[1] = target: Ba/F3 (EGFR^del19/T790M/C797S) triple-mutant cells (Homo sapiens, UniProt P00533, T790M/C797S, cells depend on it, form not given); assay: Antiproliferative activity against Ba/F3 (EGFR del19/T790M/C797S) triple-mutant cells, Cell Titer Glow; assay type: cell-based; details: three days after addition of compounds; read-out: Antiproliferative activity BaF3(EGFR^del19/T790M/C797S) IC50
Chain of Ba/F3 (EGFR^del19/T790M/C797S) triple-mutant cells (P00533 with tags, fused parts or gaps DEL746-750/T790M/C797S, form open): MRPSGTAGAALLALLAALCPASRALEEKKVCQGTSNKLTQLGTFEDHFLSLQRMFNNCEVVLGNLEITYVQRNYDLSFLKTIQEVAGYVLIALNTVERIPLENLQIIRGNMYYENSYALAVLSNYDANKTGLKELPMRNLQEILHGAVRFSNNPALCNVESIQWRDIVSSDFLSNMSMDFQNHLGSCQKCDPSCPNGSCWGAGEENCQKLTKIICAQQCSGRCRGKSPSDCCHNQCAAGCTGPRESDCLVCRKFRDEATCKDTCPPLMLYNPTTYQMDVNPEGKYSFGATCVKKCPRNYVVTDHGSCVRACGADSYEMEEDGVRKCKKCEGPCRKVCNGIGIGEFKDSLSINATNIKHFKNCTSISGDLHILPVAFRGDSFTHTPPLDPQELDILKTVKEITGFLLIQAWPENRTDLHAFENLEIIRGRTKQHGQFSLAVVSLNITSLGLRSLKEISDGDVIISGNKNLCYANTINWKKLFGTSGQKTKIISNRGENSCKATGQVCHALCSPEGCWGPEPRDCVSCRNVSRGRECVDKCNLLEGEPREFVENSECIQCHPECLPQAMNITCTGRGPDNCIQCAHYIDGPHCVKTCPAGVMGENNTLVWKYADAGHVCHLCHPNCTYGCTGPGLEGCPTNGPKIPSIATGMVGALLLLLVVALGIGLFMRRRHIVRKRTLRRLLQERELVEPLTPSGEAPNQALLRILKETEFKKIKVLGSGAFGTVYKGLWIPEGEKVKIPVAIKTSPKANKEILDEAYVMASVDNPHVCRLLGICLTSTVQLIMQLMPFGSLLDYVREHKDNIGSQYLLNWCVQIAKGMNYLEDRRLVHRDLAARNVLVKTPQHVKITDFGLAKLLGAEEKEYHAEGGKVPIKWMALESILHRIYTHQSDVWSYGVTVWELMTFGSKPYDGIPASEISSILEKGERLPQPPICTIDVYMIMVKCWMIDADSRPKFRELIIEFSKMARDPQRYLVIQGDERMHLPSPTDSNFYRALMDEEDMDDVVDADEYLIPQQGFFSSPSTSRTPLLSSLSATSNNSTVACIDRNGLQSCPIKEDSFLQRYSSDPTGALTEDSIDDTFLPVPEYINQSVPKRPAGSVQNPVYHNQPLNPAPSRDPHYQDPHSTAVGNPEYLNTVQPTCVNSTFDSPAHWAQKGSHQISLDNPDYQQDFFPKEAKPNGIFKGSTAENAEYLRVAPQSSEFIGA
Protocol: (§4) Antiproliferative Activity of the Compounds Disclosed Herein Against Ba/F3 (EGFR^del19/T790M/C797S) Triple-Mutant Cells and A431 (EGFR WT) Cells
(§5) • 3000 Ba/F3 cells carrying EGFR (del19/T790M/C797S) or 2000 A431 cells were seeded in a 384-well plate. After one day, serially diluted compounds were added (up to 500 nM for Ba/F3 cells and up to 10 μM for A431 cells). Three days after the addition of the compounds, Cell Titer Glow was added to evaluate cell growth and the percentage cell growth inhibition by the compounds and the IC50 values were calculated.

EGFR (WT) = EGFR (WT) (Homo sapiens, UniProt P00533); assay: HTRF inhibitory activity assay against EGFR (WT) enzyme; assay type: biochemical
Chain of EGFR (WT) (P00533 25-1210): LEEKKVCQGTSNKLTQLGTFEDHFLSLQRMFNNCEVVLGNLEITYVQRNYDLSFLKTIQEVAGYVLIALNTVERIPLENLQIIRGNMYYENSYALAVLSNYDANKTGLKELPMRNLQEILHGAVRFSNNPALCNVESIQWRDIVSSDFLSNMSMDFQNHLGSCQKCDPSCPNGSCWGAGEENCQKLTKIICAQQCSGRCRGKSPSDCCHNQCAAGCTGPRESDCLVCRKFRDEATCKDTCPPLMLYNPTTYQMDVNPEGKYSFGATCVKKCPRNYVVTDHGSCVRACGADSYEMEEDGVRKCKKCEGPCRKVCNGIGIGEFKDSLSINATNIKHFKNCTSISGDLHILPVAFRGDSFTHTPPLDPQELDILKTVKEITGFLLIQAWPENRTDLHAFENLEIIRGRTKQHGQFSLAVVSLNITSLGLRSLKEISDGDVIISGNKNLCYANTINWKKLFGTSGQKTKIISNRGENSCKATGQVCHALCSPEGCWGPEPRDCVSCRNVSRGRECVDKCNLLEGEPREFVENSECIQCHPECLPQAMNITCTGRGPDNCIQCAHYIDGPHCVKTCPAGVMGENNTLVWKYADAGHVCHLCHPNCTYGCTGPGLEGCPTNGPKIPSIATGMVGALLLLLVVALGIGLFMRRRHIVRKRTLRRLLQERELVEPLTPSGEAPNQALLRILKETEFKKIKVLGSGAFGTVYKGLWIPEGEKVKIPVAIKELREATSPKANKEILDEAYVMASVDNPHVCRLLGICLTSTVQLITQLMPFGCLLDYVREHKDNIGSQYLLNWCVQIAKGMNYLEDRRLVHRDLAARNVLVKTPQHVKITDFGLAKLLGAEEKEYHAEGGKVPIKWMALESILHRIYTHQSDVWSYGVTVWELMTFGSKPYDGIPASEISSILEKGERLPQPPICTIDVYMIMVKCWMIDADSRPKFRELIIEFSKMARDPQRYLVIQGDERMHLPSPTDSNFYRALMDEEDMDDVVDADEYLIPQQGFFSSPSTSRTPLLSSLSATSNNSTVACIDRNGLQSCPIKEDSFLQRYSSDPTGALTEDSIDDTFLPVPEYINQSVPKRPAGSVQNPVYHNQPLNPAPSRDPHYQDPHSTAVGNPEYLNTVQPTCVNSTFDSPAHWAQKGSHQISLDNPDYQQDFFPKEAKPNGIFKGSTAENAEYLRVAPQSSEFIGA
Protocol: as §1, §2, §3

A431 (EGFR WT) cells = assay: Antiproliferative activity against A431 (EGFR WT) cells, Cell Titer Glow; assay type: cell-based; details: Homo sapiens, A-431, 72 h; three days after addition of compounds; read-out: Antiproliferative activity A431 wild-type (WT) IC50
Protocol: as §4, §5

EGFR (del19/T790M/C797S) = assay: HTRF inhibitory activity assay against EGFR (del19/T790M/C797S) enzyme; assay type: biochemical
Outline: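 Wild-type or mutant EGFR preincubated with serially diluted compound 10 min at 28 °C, then reacted 40 min at room temperature with biotinylated TK substrate and ATP. Phosphorylation detected by HTRF (Eu-cryptate anti-TK antibody, streptavidin-XL665, 60 min), 665/615 nm ratio; % inhibition and IC50 vs control.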

Chain of EGFR (L858R/T790M/C797S) (P00533 25-1210 T790M/C797S/L858R): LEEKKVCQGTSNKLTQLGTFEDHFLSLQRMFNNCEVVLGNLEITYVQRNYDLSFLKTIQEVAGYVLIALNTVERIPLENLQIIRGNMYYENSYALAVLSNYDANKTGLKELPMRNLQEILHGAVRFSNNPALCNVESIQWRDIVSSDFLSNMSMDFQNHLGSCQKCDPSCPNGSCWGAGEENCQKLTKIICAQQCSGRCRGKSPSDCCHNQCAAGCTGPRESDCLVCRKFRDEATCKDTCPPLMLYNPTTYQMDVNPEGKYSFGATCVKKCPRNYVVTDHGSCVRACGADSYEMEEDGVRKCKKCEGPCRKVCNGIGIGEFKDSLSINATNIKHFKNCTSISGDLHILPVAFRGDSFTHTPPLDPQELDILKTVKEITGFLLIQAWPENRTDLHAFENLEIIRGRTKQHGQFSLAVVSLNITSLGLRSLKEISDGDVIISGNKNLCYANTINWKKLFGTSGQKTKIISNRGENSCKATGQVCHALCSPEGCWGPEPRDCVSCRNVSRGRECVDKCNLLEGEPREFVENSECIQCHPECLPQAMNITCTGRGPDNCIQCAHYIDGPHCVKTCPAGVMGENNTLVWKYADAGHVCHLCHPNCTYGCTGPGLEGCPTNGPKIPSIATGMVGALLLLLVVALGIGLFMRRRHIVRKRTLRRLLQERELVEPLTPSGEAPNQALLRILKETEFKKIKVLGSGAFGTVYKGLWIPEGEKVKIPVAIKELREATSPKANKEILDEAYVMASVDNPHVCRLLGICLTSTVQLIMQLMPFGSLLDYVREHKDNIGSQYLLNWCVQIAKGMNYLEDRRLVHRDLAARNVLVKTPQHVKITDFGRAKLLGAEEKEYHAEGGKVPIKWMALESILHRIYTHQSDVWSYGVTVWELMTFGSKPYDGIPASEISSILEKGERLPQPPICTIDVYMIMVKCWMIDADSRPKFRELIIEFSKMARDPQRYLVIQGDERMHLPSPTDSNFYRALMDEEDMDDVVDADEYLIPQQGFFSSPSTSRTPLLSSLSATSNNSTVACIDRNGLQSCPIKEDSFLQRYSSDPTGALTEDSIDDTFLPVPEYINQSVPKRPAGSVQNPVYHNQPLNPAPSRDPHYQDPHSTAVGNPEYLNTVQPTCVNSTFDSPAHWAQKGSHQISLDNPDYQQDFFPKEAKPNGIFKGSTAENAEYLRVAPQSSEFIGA

Row | inhibition at 0.0003 µM (EGFR (L858R/T790M/C797S)) [%] | GI50 [1] [nM] | IC50 (EGFR (WT)) [nM] | IC50 (A431 (EGFR WT) cells) [nM] | Structure (SMILES) | EGFR (del19/T790M/C797S) inhibition (%) (0.3 nM compound) (EGFR (del19/T790M/C797S))
1 | ≤ 20 | > 500 |  |  | CCc1nc(C(N)=O)c(Nc2ccc(N3CCC(N4CCN(C)CC4)CC3)c(OC)c2)nc1NC1CCOCC1 [Gilteritinib, gilteritinib, reference compound] | 
2 | ≤ 20 | 236 | > 300 | 2500 | CN1CCN(C2CCN(c3ccc(Nc4nc(NC5CCOCC5)c(-c5ccccc5)nc4C(N)=O)cc3)CC2)CC1 [compound 1] | + (+ indicates an inhibition less than or equal to 20%)
3 |  |  | > 100 |  | CN1CCN(C2CCN(c3ccc(Nc4nc(O[C@H]5CCN(C)C5)c(-c5ccccc5)nc4C(N)=O)cc3)CC2)CC1 [compound 2] | + (+ indicates an inhibition less than or equal to 20%)
4 | ≤ 20 | 295 | > 100 | 1700 | CN1CCC(Oc2nc(Nc3ccc(N4CCC(N5CCN(C)CC5)CC4)cc3)c(C(N)=O)nc2-c2ccccc2)CC1 [compound 4] | + (+ indicates an inhibition less than or equal to 20%)
5 | ≤ 20 |  | > 100 |  | CN1CCN(C2CCN(c3ccc(Nc4nc(Nc5ccccc5)c(-c5ccccc5)nc4C(N)=O)cc3)CC2)CC1 [compound 5] | + (+ indicates an inhibition less than or equal to 20%)
6 |  |  | > 300 |  | CN1CCN(C2CCN(c3ccc(Nc4nc(N(C)C)c(-c5ccccc5)nc4C(N)=O)cc3)CC2)CC1 [compound 10] | ++ (++ indicates an inhibition from 20% to 50%)
7 |  | 107 | > 300 | 540 | CC(C)Nc1nc(Nc2ccc(N3CCC(N4CCN(C)CC4)CC3)cc2)c(C(N)=O)nc1-c1ccccc1 [compound 11] | ++ (++ indicates an inhibition from 20% to 50%)
8 |  | 197 | > 300 | 1300 | CNc1nc(Nc2ccc(N3CCC(N4CCN(C)CC4)CC3)cc2)c(C(N)=O)nc1-c1ccccc1 [compound 13] | + (+ indicates an inhibition less than or equal to 20%)
9 |  | 113 | > 300 | 950 | CC(C)Oc1nc(Nc2ccc(N3CCC(N4CCN(C)CC4)CC3)cc2)c(C(N)=O)nc1-c1ccccc1 [compound 14] | + (+ indicates an inhibition less than or equal to 20%)
10 |  | 48 | > 300 | 520 | CN1CCN(C2CCN(c3ccc(Nc4nc(NCC(C)(C)O)c(-c5ccccc5)nc4C(N)=O)cc3)CC2)CC1 [compound 21] | ++ (++ indicates an inhibition from 20% to 50%)
11 | ≤ 20 | 36 |  | 950 | CN1CCN(C2CCN(c3ccc(Nc4nc(N[C@H]5CC[C@H](O)CC5)c(-c5ccccc5)nc4C(N)=O)cc3)CC2)CC1 [compound 23] | ++ (++ indicates an inhibition from 20% to 50%)
12 | ≤ 20 | 54 |  | 480 | COC1CCC(Nc2nc(Nc3ccc(N4CCC(N5CCN(C)CC5)CC4)cc3)c(C(N)=O)nc2-c2ccccc2)C1 (stereo not shown) [compound 35] | ++ (++ indicates an inhibition from 20% to 50%)
13 | 20 to 50 | 48 |  | 1800 | CN1CCN(C2CCN(c3ccc(Nc4nc(NC5CCOCC5)c(-c5ccccn5)nc4C(N)=O)cc3)CC2)CC1 [compound 38] | 
14 | > 50 | 29 | > 300 | 340 | CN1CCN(C2CCN(c3ccc(Nc4nc(NC5CCOCC5)c(-c5ccncc5)nc4C(N)=O)cc3)CC2)CC1 [compound 39, 3-((4-(4-(4-methylpiperazin-1-yl)piperidin-1-yl)phenyl)amino)-6-(pyridin-4-yl)-5-((tetrahydro-2H-pyran-4-yl)amino)pyrazine-2-carboxamide] | +++ (+++ indicates an inhibition greater than 50%.)
15 |  |  | > 300 |  | CN1CCN(C2CCN(c3ccc(Nc4nc(NC5CCOCC5)c(-c5ccccc5C#N)nc4C(N)=O)cc3)CC2)CC1 [compound 52] | +++ (+++ indicates an inhibition greater than 50%.)
16 | ≤ 20 | 16 | > 300 | 70 | CN1CCN(C2CCN(c3ccc(Nc4nc(NC5CCOCC5)c(-c5cc[nH]n5)nc4C(N)=O)cc3)CC2)CC1 [compound 55, 3-((4-(4-(4-methylpiperazin-1-yl)piperidin-1-yl)phenyl)amino)-6-(1H-pyrazol-3-yl)-5-((tetrahydro-2H-pyran-4-yl)amino)pyrazine-2-carboxamide] | +++ (+++ indicates an inhibition greater than 50%.)
17 | 20 to 50 | 79 | > 300 | 320 | CN1CCN(C2CCN(c3ccc(Nc4nc(NC5CCOCC5)c(-c5cn[nH]c5)nc4C(N)=O)cc3)CC2)CC1 [compound 57] | ++ (++ indicates an inhibition from 20% to 50%)
18 |  | 72 | > 300 | 1400 | CN(C)C1CCN(c2ccc(Nc3nc(NC4CCOCC4)c(-c4ccccc4)nc3C(N)=O)cc2)CC1 [compound 59] | + (+ indicates an inhibition less than or equal to 20%)
19 | 20 to 50 | 233 |  | 750 | COc1ccncc1-c1nc(C(N)=O)c(Nc2ccc(N3CCC(N4CCN(C)CC4)CC3)cc2)nc1NC1CCOCC1 [compound 83] | ++ (++ indicates an inhibition from 20% to 50%)
20 | > 50 | 27 |  | 970 | Cc1cc(Nc2nc(NC3CCOCC3)c(-c3ccncc3)nc2C(N)=O)ccc1N1CCC(N2CCN(C)CC2)CC1 [compound 114] | ++ (++ indicates an inhibition from 20% to 50%)
21 | > 50 | 70 |  | 590 | CN1CCC(c2ccc(Nc3nc(NC4CCOCC4)c(-c4ccncc4)nc3C(N)=O)cc2)CC1 [compound 121] | +++ (+++ indicates an inhibition greater than 50%.)
22 | 20 to 50 | 99 |  | 650 | CO[C@H]1C[C@H](Nc2nc(Nc3ccc(N4CCC(N5CCN(C)CC5)CC4)cc3)c(C(N)=O)nc2-c2ccccc2)C1 [compound 125] | ++ (++ indicates an inhibition from 20% to 50%)
23 | ≤ 20 | 248 |  | 2600 | CN1CCN(C2CCN(c3ccc(Nc4nc(NC5CS(=O)(=O)C5)c(-c5ccccc5)nc4C(N)=O)cc3)CC2)CC1 [compound 126] | + (+ indicates an inhibition less than or equal to 20%)
24 | ≤ 20 | 61 | 10.2 | 660 | CCc1cc(Nc2nc(NC3CC4(COC4)C3)c(-c3cc[nH]n3)nc2C(N)=O)ccc1N1CCC(N2CCN(C)CC2)CC1 [compound 503] | +++ (+++ indicates an inhibition greater than 50%.)
25 | > 50 | 4 | 0.27 | 50 | CC(C)Nc1nc(Nc2ccc(N3CCC(N4CCN(C)CC4)CC3)cc2)c(C(N)=O)nc1-c1cccc2[nH]ccc12 [compound 521] | +++ (+++ indicates an inhibition greater than 50%.)
26 | > 50 |  |  |  | CN1CCN(C2CCN(c3ccc(Nc4nc(NC5CC6(COC6)C5)c(-c5cccc6[nH]ccc56)nc4C(N)=O)cc3F)CC2)CC1 [compound 536] | +++ (+++ indicates an inhibition greater than 50%.)
27 | > 50 | 13 |  | 70 | CN1CCN(C2CCN(c3ccc(Nc4nc(NC5COC5)c(-c5cccc6[nH]ccc56)nc4C(N)=O)cc3)CC2)CC1 [compound 594] | +++ (+++ indicates an inhibition greater than 50%.)
